Results: patent US7344829B2, “Methods for detecting the efficacy of anticancer treatments” (Board of Regents, the University of Texas System, priority 2000, dated 2008)

What was measured:
[1] = biological target: T1, phosphorylated (activated) EGF-R (Mus musculus, UniProt Q01279); assay: Activated EGF-R in UV-2237 fibrosarcoma tumors and skin/hair follicles of mice (immunohistochemistry); type: in vivo, C3H/HeN mice; conditions: 6 administrations
T1 construct: from tissue; host or cells: UV-2237 fibrosarcoma tumours and dorsal skin/hair follicles of C3H/HeN mice
Protocol: C3H/HeN mice were injected subcutaneously with UV-2237 fibrosarcoma cells. Seven days after the implantation, the mice were given 3 weekley oral administrations of PBS, 10 mg/kg PKI166, 50 mg/kg PKI166, and 100 mg/kg PKI166. The mice were killed on day 15 of treatment (6 oral administrations), i.e., one day after the last oral administration.
The tumors were harvested and processed for immunohistochemistry. The contralateral dorsal skin and hair were excised and prepare for immunohistochemistry. The tumors and skin/hair samples were sectioned and stained with antibodies against the EGF-R and antibodies against the phosphorylated (activated) EGF-R. The results are shown in FIG. 8.

[2] = biological target: Cdc2/cyclin B; assay: Cdc2/cyclin B protein kinase inhibition assay; type: biochemical
Protocol: GST-fused kinase domains of Kdr, Flt-1, Flk, Tek, c-Met, and c-Kit were expressed in baculovirus and purified over glutathione-Sepharose. Kinase inhibition was measured by detecting the decrease in phosphorylation of poly(Glu,[…]:1) essentially as previously described for EGF-R. […] Reactions were terminated by adding 10 μl of 250 mM EDTA, and the reaction mixture was transferred onto an Immobilon-PVDG membrane (Millipore, Bedford, Mass.). Following a washing (0.5% H3PO4), a soaking in EtOH, and drying, filters were counted in a liquid scintillation counter. […] Inhibition of Cdc2/cyclin B protein kinase (Arion et al. 1988; […] et al. 1991) and […] et al. 1992b) was assayed as previously described.

[3] = biological target: T2, Flt-1 (Homo sapiens, UniProt P17948); assay: GST-fused kinase domain assay, Flt-1; type: biochemical; conditions: Flt-1, text
T2 construct: GST-fused kinase domains of Kdr, Flt-1, Flk, Tek, c-Met, and c-Kit were expressed in baculovirus; GST; made in house
T2 sequence (P17948 827-1158 limits assumed): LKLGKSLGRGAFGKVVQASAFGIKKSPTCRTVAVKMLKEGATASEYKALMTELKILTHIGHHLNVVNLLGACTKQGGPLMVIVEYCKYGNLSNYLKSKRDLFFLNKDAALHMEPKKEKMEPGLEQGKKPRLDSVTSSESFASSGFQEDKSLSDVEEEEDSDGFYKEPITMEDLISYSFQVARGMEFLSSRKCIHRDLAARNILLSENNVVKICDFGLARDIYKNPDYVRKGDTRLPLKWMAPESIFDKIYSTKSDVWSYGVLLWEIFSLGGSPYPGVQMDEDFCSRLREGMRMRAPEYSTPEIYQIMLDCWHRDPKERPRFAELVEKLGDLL
Protocol: (§1) GST-fused kinase domains of Kdr, Flt-1, Flk, Tek, c-Met, and c-Kit were expressed in baculovirus and purified over glutathione-Sepharose. Kinase inhibition was measured by detecting the decrease in phosphorylation of poly(Glu,Tyr 4:1) essentially as previously described for EGF-R. Each kinase was incubated under optimized buffer conditions in 20 mM Tris-HCl, pH 7.5, 1–3 mM MnCl2, 3–10 mM MgCl2, 10 μM Na3VO4, 1 mM DTT, 0.2 μCi/[γ-^33P]ATP, 1–8 μM ATP, 3–8 μg/ml poly(Glu,Tyr 4:1), 1% DMSO in a total volume of 30 μl in the presence or absence of PKI166 for 10 min at ambient temperature. Reactions were terminated by adding 10 μl of 250 mM EDTA, and the reaction mixture was transferred onto an Immobilon-PVDG membrane (Millipore, Bedford, Mass.). Following a washing (0.5% H3PO4), a soaking in EtOH, and drying, filters were counted in a liquid scintillation counter. IC50 values for PKI166 were calculated by linear regression analysis of the percentage inhibition. Inhibition of Cdc2/cyclin B protein kinase (Arion et al. 1988; Partanen et al. 1991) and PKC (McGlynn et al. 1992b) was assayed as previously described.

[4] = biological target: T3, EGF-R-ICD (Homo sapiens, UniProt P00533); assay: In vitro kinase filter binding assay, EGF-R intracellular kinase domain; type: biochemical
T3 construct: EGF-R intracellular kinase domain (EGF-R-ICD) was assayed in 20 mM Tris-HCl
T3 sequence (P00533 669-1210 limits assumed): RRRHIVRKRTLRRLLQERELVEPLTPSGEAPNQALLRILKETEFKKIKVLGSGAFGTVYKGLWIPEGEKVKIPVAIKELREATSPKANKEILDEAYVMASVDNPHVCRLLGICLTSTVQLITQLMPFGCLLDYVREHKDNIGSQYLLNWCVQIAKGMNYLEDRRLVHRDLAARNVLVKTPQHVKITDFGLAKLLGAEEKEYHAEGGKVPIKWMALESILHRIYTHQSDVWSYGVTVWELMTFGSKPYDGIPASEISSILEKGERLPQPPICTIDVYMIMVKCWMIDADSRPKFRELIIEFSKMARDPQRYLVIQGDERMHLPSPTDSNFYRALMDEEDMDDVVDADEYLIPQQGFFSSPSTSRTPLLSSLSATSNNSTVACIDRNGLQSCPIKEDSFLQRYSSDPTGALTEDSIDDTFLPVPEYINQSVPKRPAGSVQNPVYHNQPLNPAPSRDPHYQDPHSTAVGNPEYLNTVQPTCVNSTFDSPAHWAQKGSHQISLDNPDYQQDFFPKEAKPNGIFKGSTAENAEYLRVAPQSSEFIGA
Protocol: (§2) Preparation of Enzymes and Kinase Assays. In vitro enzyme assays using EGF-R (McGlynn et al. 1992a), Abl (Geissler et al. 1992), and c-Src (Geissler et al. 1990) protein tyrosine kinases were performed in 96-well plates as a filter binding assay. Briefly, EGF-R intracellular kinase domain (EGF-R-ICD) was assayed in 20 mM Tris-HCl, pH 7.5, 10 mM MnCl2, 10 μM Na3VO4, 1 mM DTT, 0.1 μCi/assay [γ-^33P]ATP, 0.4 μM ATP, 2 μ/ml poly(Glu,Tyr 4:1) (Sigma P275), 1% DMSO, and 30 ng EGF-R-ICD in a total volume of 30 μl. The His-tagged kinase domain of c-Abl was cloned and expressed in the baculovirus/Sf9 system as described previously (Bhat et al. 1997) and assayed in 20 mM Tris-HCl, pH 7.5, 10 mM MgCl2, 10 μM Na3VO4, 1 mM DTT, 0.06 μCi/assay (=30 μl ) [γ-^32P]ATP, 5 μM ATP, 30 μg/ml poly(Ala,Glu,Lys,Tyr 6:2:5:1) (Sigma P1152), 1% DMSO, and 50 ng c-Abl enzyme. Src kinase (60 μg/ml) was preactivated with 50 μM ATP for 10 min at room temperature, and kinase inhibition was measured in 20 mM Tris-HCl, pH 7.5, 10 mM MgCl2, 10 μM Na3VO4, 1 mM DTT, 0.1 μCi/assay (=30 μl ) [γ-^33P]ATP, 20 μM ATP, 25 μg/ml poly(Glu,Tyr 4:1), 1% DMSO, and 10 ng c-Src enzyme.
as §1

[5] = biological target: T4, c-Abl (Homo sapiens, UniProt P00519); assay: In vitro kinase filter binding assay, c-Abl kinase domain; type: biochemical; conditions: c-Abl tyrosine kinase
T4 construct: The His-tagged kinase domain of c-Abl was cloned and expressed in the baculovirus/Sf9 system; His; made in house; host or cells: baculovirus/Sf9
T4 sequence (P00519 242-493 limits assumed): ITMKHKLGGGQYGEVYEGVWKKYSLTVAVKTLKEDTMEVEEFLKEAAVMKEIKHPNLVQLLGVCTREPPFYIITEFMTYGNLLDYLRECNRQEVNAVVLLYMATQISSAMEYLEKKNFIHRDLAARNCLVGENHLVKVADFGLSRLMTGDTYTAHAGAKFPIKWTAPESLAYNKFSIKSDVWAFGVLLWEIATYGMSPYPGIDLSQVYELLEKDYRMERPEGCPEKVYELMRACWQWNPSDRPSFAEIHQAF
Protocol: as §2, with “The His-tagged kinase domain of c-Abl was cloned and expressed in the baculovirus/Sf9 system as described previously (Bhat et al. 1997) and assayed in 20 mM Tris-HCl, pH 7.5, 10 mM MgCl2, 10 μM Na3VO4, 1 mM DTT, 0.06 μCi/assay (=30 μl ) [γ-^32P]ATP, 5 μM ATP, 30 μg/ml poly(Ala,Glu,Lys,Tyr 6:2:5:1) (Sigma P1152), 1% DMSO, and 50 ng c-Abl enzyme.” left out
GST-fused kinase domains of Kdr, Flt-1, Flk, Tek, c-Met, and c-Kit were expressed in baculovirus and purified over glutathione-Sepharose. Kinase inhibition was measured by detecting the decrease in phosphorylation of poly(Glu,Tyr 4:1) essentially as previously described for EGF-R. Each kinase was incubated under optimized buffer conditions in 20 mM Tris-HCl, pH 7.5, 1–3 mM MnCl2, 3–10 mM MgCl2, 10 μM Na3VO4, 1 mM DTT, 0.2 μCi/[γ-^33P]ATP, 1–8 μM ATP, 3–8 μg/ml poly(Glu,Tyr 4:1), 1% DMSO in a total volume of 30 μl in the presence or absence of PKI166 for 10 min at ambient temperature. […]

C[C@@H](Nc1ncnc2[nH]c(-c3ccc(O)cc3)cc12)c1ccccc1 [PKI166, 4-(R)-phenethylamino-6-(hydroxyl) phenyl-7H-pyrrolo[2.3-d]-pyrimidine]
Expression of activated EGF-R in tumors or skin/hair follicles ([1]; oral 10 mg/kg): did not decrease | Phosphorylation of EGF-R in tumors and skin/hair follicles ([1]; oral 50 mg/kg or 100 mg/kg): inhibited phosphorylation | IC50 [2]: 78000 nM | IC50 [3]: 962 nM | mode of inhibition of EGF-R kinase ([4]; enzyme kinetic studies): ATP-competitive inhibition | IC50 ([4]; intracellular domain (ICD) of the EGF-R kinase): 0.7 nM | selectivity factor for inhibition of the EGF-R ICD ([4]; versus other tyrosine kinases (Traxler et al. 1999)): > 40 | selectivity ratio ([4]; with respect to inhibition of serine/threonine kinases PKC-α and Cdc2/cyclin B): > 3000 | IC50 [5]: 28 nM
